Values of other authors as cited in US10980740B2, “Tranexamic acid spray for knee arthroplasty” (SHILPA MEDICARE LIMITED, priority 2017, dated 2021).
Read-outs that look alike come from different tables or passages of the source.

Columns and labels:
[1] = system: patients undergoing elective total knee arthroplasty
[2] = system: Total knee arthroplasty patients
plasminogen = plasminogen (Homo sapiens, UniProt P00747)
plasminogen, sequence (P00747 20-810 limits assumed, species assumed): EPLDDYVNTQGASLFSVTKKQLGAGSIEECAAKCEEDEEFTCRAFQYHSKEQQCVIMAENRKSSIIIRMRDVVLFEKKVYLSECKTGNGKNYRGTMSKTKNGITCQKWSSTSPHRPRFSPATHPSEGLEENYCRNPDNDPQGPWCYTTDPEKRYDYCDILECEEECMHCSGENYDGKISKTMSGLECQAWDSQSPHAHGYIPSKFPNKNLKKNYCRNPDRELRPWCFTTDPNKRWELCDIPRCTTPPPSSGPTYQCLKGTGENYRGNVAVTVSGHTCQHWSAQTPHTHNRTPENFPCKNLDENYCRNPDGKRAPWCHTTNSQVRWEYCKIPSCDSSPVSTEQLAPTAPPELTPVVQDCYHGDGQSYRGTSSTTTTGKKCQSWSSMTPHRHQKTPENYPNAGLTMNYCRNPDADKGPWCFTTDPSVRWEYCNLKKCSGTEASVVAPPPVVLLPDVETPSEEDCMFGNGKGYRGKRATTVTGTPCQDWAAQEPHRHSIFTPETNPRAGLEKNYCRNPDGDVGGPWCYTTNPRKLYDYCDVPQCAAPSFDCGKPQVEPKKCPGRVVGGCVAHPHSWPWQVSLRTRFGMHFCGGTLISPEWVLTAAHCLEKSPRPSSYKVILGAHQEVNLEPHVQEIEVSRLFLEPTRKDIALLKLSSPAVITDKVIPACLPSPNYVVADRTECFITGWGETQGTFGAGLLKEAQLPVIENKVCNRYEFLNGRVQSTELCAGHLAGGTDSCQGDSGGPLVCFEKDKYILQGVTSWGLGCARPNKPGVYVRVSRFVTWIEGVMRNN

NC[C@H]1CC[C@H](C(=O)O)CC1 [Tranexamic acid]
reducing calculated blood loss and transfusion rates ([1]; intravenous): effective | reducing calculated blood loss and transfusion rates ([1]; topical, 3 gm diluted in 45 mL normal saline, applied after cementation): effective | systemic side effects ([2]; topical tranexamic acid): reduces the systemic side effects | reduction of peri- and post-operative blood loss, topical compared with intravenous ([2]; total knee arthroplasty, topical 2 gm in intra-articular drain, clamped one hour): equally efficacious | potency in vitro relative to aminocaproic acid (plasminogen): about 10 times
